# Measurements as given in ChEMBL document CHEMBL5614404, “Optimization of potent, broad-spectrum, and specific anti-influenza compounds targeting RNA polymerase PA-PB1 heterodimerization” (Eur J Med Chem, 2024).
# Activity calls are given as the source filed them. No cut-off for these calls is given here.
# Columns and labels:
# [1] = tested on: Influenza A virus; experiment: Antiviral activity against Amantadine/Oseltamivir-sensitive Influenza A virus Solomon Islands/03/2006 (H1N1) infected in MDCK cells by plaque reduction assay; type: functional, organism-based
# [2] = Inhibition of heterodimerization of C-terminal His-tagged Influenza virus PA (239 to 716 residues)/N-terminal GST-tagged Influenza virus PB1 (1 to 25 residues) incubated overnight by ELISA; set-up: species or system unidentified influenza virus
# [3] = tested on: Influenza B virus; experiment: Antiviral activity against Influenza B virus Brisbane/60/2008 infected in MDCK cells by plaque reduction assay; type: functional, organism-based; settings: Brisbane/60/2008, MDCK
# [4] = Cytotoxicity against MDCK cells by Neutral red uptake assay; type: toxicity, cell-based, Canis lupus familiaris; settings: dog
# [5] = Cytotoxicity against MDCK cells incubated for 48 hrs by MTT assay; type: toxicity, cell-based, Canis lupus familiaris; settings: dog
# [6] = tested on: Influenza A virus; experiment: Antiviral activity against Influenza A virus PR/8/34 infected in MDCK cells incubated for 48 hrs by plaque reduction assay; type: functional, organism-based
# [7] = Selectivity index, ratio of CC50 for MDCK cells to EC50 for Influenza A virus PR/8/34 infected in MDCK cells; type: toxicity, cell-based; settings: dog, read-out: Ratio CC50/EC50
# [8] = Cytotoxicity against HEK293T cells incubated for 48 hrs by MTT assay; type: toxicity, cell-based, HEK-293T; settings: human
# [9] = tested on: Influenza A virus; experiment: Antiviral activity against Influenza A virus PR/8/34 (H1N1) infected in MDCK cells incubated for 48 hrs by plaque reduction assay; type: functional, organism-based
# [10] = tested on: Influenza A virus; experiment: Antiviral activity against Influenza A virus Wisconsin/67/05 (H3N2) infected in MDCK cells incubated for 48 hrs by plaque reduction assay; type: functional, organism-based
# [11] = tested on: Influenza B virus; experiment: Antiviral activity against ancestral Influenza B virus Lee/40 infected in MDCK cells incubated for 48 hrs by plaque reduction assay; type: functional, organism-based; settings: Lee/40, MDCK
# [12] = tested on: Influenza B virus; experiment: Antiviral activity against Influenza B virus Malaysia/2506/04 infected in MDCK cells incubated for 48 hrs by plaque reduction assay; type: functional, organism-based; settings: Malaysia/2506/04, MDCK
# [13] = Inhibition of 6His-tagged Influenza virus PA (239 to 716 residues) extracted from Escherichia coli BL21(DE3)pLysS/GST-tagged Influenza virus PB1 (1 to 25 residues) by ELISA; set-up: species or system unidentified influenza virus
# [14] = tested on: HEK293T; experiment: Inhibition of heterodimerization of Influenza virus GFP-fused PA/PB1 transfected in HEK293T cells assessed as impaired nuclear import at 5 uM incubated for 14 hrs by CLSM analysis; type: cell-based; settings: unidentified influenza virus
# [15] = tested on: unidentified influenza virus; experiment: Thermal stabilization of C-terminal 6His-tagged Influenza virus PA (239 to 716 residues) extracted from Escherichia coli BL21(DE3)pLysS/N-terminal Influenza virus PB1 (1 to 25 residues) assessed as shift in melting temperature by nano-DSF assay
# [16] = Inhibition of heterodimerization of C-terminal His-tagged Influenza virus PA (239 to 716 residues)/N-terminal GST-tagged Influenza virus PB1 (1 to 25 residues) by ELISA; set-up: species or system unidentified influenza virus
# [17] = tested on: Influenza A virus; experiment: Antiviral activity against Influenza A virus WSN/33 (H1N1) clinical isolate infected in MDCK cells expressing ST6Gal by crystal violet staining based plaque reduction assay; type: functional, organism-based
# [18] = tested on: Influenza A virus; experiment: Antiviral activity against Oseltamivir-sensitive Influenza A virus Denmark/524/2009 (H1N1) clinical isolate infected in MDCK cells expressing ST6Gal by crystal violet staining based plaque reduction assay; type: functional, organism-based
# [19] = tested on: Influenza A virus; experiment: Antiviral activity against Influenza A virus Switzerland/9715293/2013 (H3N2) clinical isolate infected in MDCK cells expressing ST6Gal by crystal violet staining based plaque reduction assay; type: functional, organism-based
# [20] = tested on: Influenza A virus; experiment: Antiviral activity against Influenza A virus Texas/04/2009 (H1N1) clinical isolate infected in MDCK cells expressing ST6Gal by crystal violet staining based plaque reduction assay; type: functional, organism-based
# [21] = tested on: Influenza A virus; experiment: Antiviral activity against Influenza A virus Washington/29/2009 (H1N1) clinical isolate infected in MDCK cells expressing ST6Gal by crystal violet staining based plaque reduction assay; type: functional, organism-based
# [22] = tested on: Influenza B virus; experiment: Antiviral activity against Influenza B virus Wisconsin/1/2010 clinical isolate infected in MDCK cells expressing ST6Gal by crystal violet staining based plaque reduction assay; type: functional, organism-based; settings: Wisconsin/1/2010, MDCK
# [23] = tested on: Influenza B virus; experiment: Antiviral activity against Influenza B virus Memphis/20/1996 clinical isolate infected in MDCK cells expressing ST6Gal by crystal violet staining based plaque reduction assay; type: functional, organism-based; settings: Memphis/20/1996, MDCK
# [24] = tested on: Influenza B virus; experiment: Antiviral activity against Influenza B virus Utah/09/2014 clinical isolate infected in MDCK cells expressing ST6Gal by crystal violet staining based plaque reduction assay; type: functional, organism-based; settings: Utah/09/2014, MDCK
# [25] = tested on: Influenza B virus; experiment: Antiviral activity against Influenza B virus Phuket/3073/2013 clinical isolate infected in MDCK cells expressing ST6Gal by crystal violet staining based plaque reduction assay; type: functional, organism-based; settings: Phuket/3073/2013, MDCK
# [26] = tested on: Influenza B virus; experiment: Antiviral activity against Influenza B virus Brisbane/60/2008 clinical isolate infected in MDCK cells expressing ST6Gal by crystal violet staining based plaque reduction assay; type: functional, organism-based; settings: Brisbane/60/2008, MDCK
# [27] = Cytotoxicity against MDCK cells assessed as reduction in cell viability incubated for 48 hrs by Neutral red uptake assay; type: toxicity, cell-based, Canis lupus familiaris; settings: dog
# [28] = Binding affinity to C-terminal His-tagged Influenza virus RdRp PA assessed as dissociation constant by ITC analysis; set-up: species or system unidentified influenza virus
# [29] = tested on: HEK293T; experiment: Inhibition of heterodimerization of Influenza virus GFP-fused PA/PB1 transfected in HEK293T cells assessed as impaired nuclear import at 0.5 uM incubated for 14 hrs by CLSM analysis; type: cell-based; settings: unidentified influenza virus
# [30] = tested on: Dengue virus; experiment: Antiviral activity against DENV infected in human Huh-7 cells assessed as inhibition of viral replication; type: functional, organism-based
# [31] = tested on: West Nile virus; experiment: Antiviral activity against WNV infected in human Huh-7 cells assessed as inhibition of viral replication; type: functional, organism-based
# [32] = tested on: SARS-CoV-2; experiment: Antiviral activity against SARS CoV-2 infected in human Caco-2 cells assessed as inhibition of viral replication; type: functional, organism-based; settings: Severe acute respiratory syndrome coronavirus 2
# [33] = (§1) Antiviral activity against HPIV infected in human A549 cells assessed as inhibition of viral replication; type: functional, cell-based
# [34] = tested on: Huh-7; experiment: Cytotoxicity against human Huh-7 cells; type: toxicity, cell-based
# [35] = tested on: Caco-2; experiment: Cytotoxicity against human Caco-2 cells; type: toxicity, cell-based
# [36] = (§2) Cytotoxicity against human A549 cells; type: toxicity, cell-based; settings: A549 cells
# [37] = Thermodynamic solubility in aqueous media incubated for 24 hrs by shake flask method; type: physicochemical; settings: read-out: Therm_solubility
# [38] = Apparent permeability of compound incubated for 5 hrs by PAMPA; type: ADME
# [39] = Permeability of compound assessed as membrane retention incubated for 5 hrs by PAMPA; type: ADME
# [40] = Metabolic stability in human liver microsomes assessed as unmetabolized compound at 50 uM incubated for 1 hr in presence of NADPH by UV/LC-MS analysis; type: ADME, Microsome; settings: read-out: Stability
# [41] = Metabolic stability in rat plasma at 2 mM measured upto 1440 mins by UV/LC-MS analysis; type: ADME, cell-free; settings: read-out: Stability
# [42] = Binding affinity to RED-NT650-NHS-labeled C-terminal 6His-tagged recombinant Influenza virus PA (239 to 716 residues) extracted from Escherichia coli BL21(DE3)pLysS assessed as dissociation constant by MST assay; set-up: species or system unidentified influenza virus
# [43] = tested on: A549; experiment: as §1; type: functional, cell-based
# [44] = tested on: A549; experiment: as §2; type: toxicity, cell-based; settings: a549
# [45] = Metabolic stability in rat plasma at 2 mM measured for 5 to 60 mins by UV/LC-MS analysis; type: ADME, cell-free; settings: time 5-60 min, read-out: Stability
# [46] = Metabolic stability in rat plasma at 2 mM measured after 1440 mins by UV/LC-MS analysis; type: ADME, cell-free; settings: read-out: Stability
# [47] = Influenza A virus, PR/8/34, MDCK, 48 h
smiles,measurement,setting,value
O=C1C(c2ncc([N+](=O)[O-])s2)CC[C@@H]2CCCC[C@@H]12 (stereo not given in full),EC50,[1],0.93 µM
same,IC50,[2],18.5 µM
same,EC50,[3],0.93 µM
same,CC50,[4],> 300 µM
NC(=O)c1ncn([C@@H]2O[C@H](CO)[C@@H](O)[C@H]2O)n1 [RIBAVIRIN],CC50 at 48 h,[5],> 250 µM
same,EC50,[6],8.7 µM
same,selectivity ratio,[7],> 29
same,CC50 at 48 h,[8],> 50 µM
same,EC50,[9],7.4 µM
same,EC50,[10],5.8 µM
same,EC50,[11],19.5 µM
same,EC50,[12],10.8 µM
N#Cc1ccc(C(=O)Nc2sc3c(c2C(=O)Nc2ccc(C(F)(F)F)cc2)CCCCC3)cc1,CC50 at 48 h,[5],> 250 µM
same,IC50,[13],> 200 µM
same,EC50,[6]; [47],1.8 µM
same,selectivity ratio,[7],> 135
same,CC50 at 48 h,[8],> 50 µM
same,inhibition,[14],inactive
same,Activity,[15],inactive
C[C@@H](c1ccccc1)n1nnnc1[C@H](c1ccsc1)N1CCC(n2c(=O)[nH]c3ccccc32)CC1,IC50,[16],7.6 µM
same,EC50,[17],0.6 µM
same,EC50,[18],0.6 µM
same,EC50,[19],0.6 µM
same,EC50,[20],0.6 µM
same,EC50,[21],0.6 µM
same,EC50,[22],0.6 µM
same,EC50,[23],0.6 µM
same,EC50,[24],0.6 µM
same,EC50,[25],0.6 µM
same,EC50,[26],0.6 µM
same,CC50 at 48 h,[27],> 300 µM
CCc1c(C)nc2nnc(-c3ccccc3Cl)n2c1O,Kd,[28],1.32 µM
O=C(Nc1sc2c(c1C(=O)Nc1ccccc1O)CCCCC2)c1ccc([N+](=O)[O-])cc1O,CC50 at 48 h,[5],224 µM
same,IC50,[13],26.5 µM
same,EC50,[6]; [47],0.089 µM
same,selectivity ratio,[7],2520
same,inhibition,[29],Active
same,CC50 at 48 h,[8],> 50 µM
same,Activity,[15],Active
same,EC50,[9],0.089 µM
same,EC50,[10],0.054 µM
same,EC50,[11],0.087 µM
same,EC50,[12],0.088 µM
same,Activity,[30],inactive
same,Activity,[31],inactive
same,Activity,[32],inactive
same,EC50,[33],21.7 µM
same,Activity,[34],Non-Toxic
same,Activity,[35],Non-Toxic
same,CC50,[36],> 40 µM
same,solubility thermodynamic at 24 h,[37],49.8 µM
same,Papp at 5 h,[38],0.78 ×10⁻⁶ cm/s
same,Activity,[39],2.5%
same,"remaining at 1 h, 50 µM",[40],93.8%
same,"remaining at 24 h, 2000 µM",[41],~100%
N#Cc1ccc(C(=O)Nc2sc3c(c2C(=O)Nc2ccccc2O)CCCCC3)cc1,CC50 at 48 h,[5],> 250 µM
same,IC50,[13],19.3 µM
same,EC50,[6]; [47],0.38 µM
same,selectivity ratio,[7],> 667
same,inhibition,[29],Active
same,CC50 at 48 h,[8],> 50 µM
same,Activity,[15],Active
same,Kd,[42],5.75 µM
same,EC50,[9],0.38 µM
same,EC50,[10],0.22 µM
same,EC50,[11],0.3 µM
same,EC50,[12],0.35 µM
same,Activity,[30],inactive
same,Activity,[31],inactive
same,Activity,[32],inactive
same,Activity,[43],inactive
same,Activity,[34],Non-Toxic
same,Activity,[35],Non-Toxic
same,Activity,[44],Non-Toxic
same,solubility thermodynamic at 24 h,[37],17.6 µM
same,Papp at 5 h,[38],3.48 ×10⁻⁶ cm/s
same,Activity,[39],57%
same,"remaining at 1 h, 50 µM",[40],93.3%
same,remaining at 2000 µM,[45],95%
same,"remaining at 24 h, 2000 µM",[46],81%
